Measured values taken from patent US20080241254A1, “PHARMACEUTICAL COMPOSITION COMPRISING ATOVAQUONE PARTICLES” (priority 2007, published 2008).

How the values were obtained:
[1] = single oral dose, presence of fatty food; cited from earlier work
[2] = Particle size of atovaquone particles, light scattering (Malvern Mastersizer); type: physicochemical; conditions: milled atovaquone particles before formulation
Text: Conventionally known particle size analysis methods can be used suitably for determining the particle size. For example, particle size measurement can be done using light-scattering methods and turbidimetric methods, sedimentation methods, such as pipette analysis technique using an Andreassen pipette, sedimentation scales, photosedimentometers and sedimentation in a centrifugal force field, pulse methods, for example using a Coulter counter, or sorting by means of gravitational or centrifugal force.
The term “d9o value” means at least 90% of atovaquone particles have volume diameter less than specified value when measured by a light scattering method, for example, Malvern Mastersizer.
Atovaquone was air jet milled using at inlet feeder air pressure of 6 kg/cm2 and inlet miller air pressure of 8 kg/cm2 at the rate of 100 g/hour. After one cycle the contents were again milled through air jet mill for second cycle to obtain the desired particle size.

[3] = cited from earlier work

d90 particle size [2]: 5.34 μm
d50 particle size ([2]; measured by Malvern): 2.42 μm
Structure (SMILES): O=C1C(O)=C(C2CCC(c3ccc(Cl)cc3)CC2)C(=O)c2ccccc21 (stereo not shown) [Atovaquone, 2-[4-(4-chlorophenyl)cyclohexyl]-3-hydroxy-1,4-naphthoquinone]
effect of fatty food on absorption [1]: increased about threefold
aqueous solubility [3]: low aqueous solubility
